Measured values as given in patent US4123612A, “7-(5-Am ino-5-carboxyvaleramido)-3-(carbamoyoloxymethyl)-3-cephem-4-carboxylic acid” (Eli Lilly and Company, priority 1974, dated 1978).
Structures can show the parent of a compound that is named as a salt.

Key:
physchem = conditions: 66% dimethylformamide-water
tomato plants = assay: field trial on tomato plants, crop injury (Example 9); format: in vivo; conditions: 0 = no injury, 10 = dead plants
Protocol: (§1) A mixture of the monoammonium salt of A16886I and the monoammonium salt of A16886II was tested under field conditions for the control of Xanthomonas vesicatoria (bacterial spot) on mature bearing tomato plants. The mixture of the two salts was dispersed in water at a concentration of 100, 200, or 400 parts per million and applied to the plants at the rate of 75 gallons per acre. Application was made with a CO2 sprayer at 50 psi. Plants were sprayed twice, on successive days; after the second spray had dried, all plants were wounded by sand blasting and then within one minute the plants were inoculated with a bacterial inoculum of Xanthomonas vesicatoria. Three days later, a third spray application of the aqueous formulation of A16886 was made. Readings were made one week and two weeks after the last spray treatment. Controls consisted of groups of plants (1) sand blasted and inoculated; (2) sand blasted only; (3) untreated; and (4) treated with streptomycin (on the same three-day spraying schedule, at a concentration of 100, 200, or 400 parts per million of aqueous solution, using a rate of 75 gallons per acre), sand blasted, and inoculated. The results were as set forth in the following table, in which crop injury is reported on a scale of 0-10, with 0 = no injury and 10 = dead plants; and control of bacterial spot is reported on a percentage basis.

Xanthomonas vesicatoria = assay: field trial on tomato plants, bacterial spot control (Example 9); format: in vivo
Protocol: as §1

| Compound | pKa (physchem; pH 5, pK'a1) | pKa (physchem; pH 5, pK'a2) | pKa (physchem; pH 5, pK'a3) | Crop Injury Ratings (tomato plants; 100 parts/million, first reading) | Crop Injury Ratings (tomato plants; 100 parts/million, second reading) | Crop Injury Ratings (tomato plants; 200 parts/million, first reading) | Crop Injury Ratings (tomato plants; 200 parts/million, second reading) | Crop Injury Ratings (tomato plants; 400 parts/million, first reading) | Crop Injury Ratings (tomato plants; 400 parts/million, second reading) | Percent Bacterial Spot Control (Xanthomonas vesicatoria; 100 parts/million, first reading (one week)) [%] | Percent Bacterial Spot Control (Xanthomonas vesicatoria; 100 parts/million, second reading (two weeks)) [%] | Percent Bacterial Spot Control (Xanthomonas vesicatoria; 200 parts/million, first reading (one week)) [%] | Percent Bacterial Spot Control (Xanthomonas vesicatoria; 200 parts/million, second reading (two weeks)) [%] | Percent Bacterial Spot Control (Xanthomonas vesicatoria; 400 parts/million, first reading (one week)) [%] | Percent Bacterial Spot Control (Xanthomonas vesicatoria; 400 parts/million, second reading (two weeks)) [%] |
| --- | --- | --- | --- | --- | --- | --- | --- | --- | --- | --- | --- | --- | --- | --- | --- |
| COC1(NC(=O)CCCC(N)C(=O)O)C(=O)N2C(C(=O)O)=C(COC(N)=O)CSC21 (stereo not drawn) [A16886I hydrochloride] | 3.6 | 5.2 | 10.8 |  |  |  |  |  |  |  |  |  |  |  |  |
| [H]/N=C(/N)N[C@H]1[C@H](O)[C@@H](O)[C@H](O[C@@H]2O[C@@H](C)[C@](O)(C=O)[C@H]2O[C@@H]2O[C@@H](CO)[C@H](O)[C@@H](O)[C@@H]2NC)[C@@H](N/C(N)=N\[H])[C@@H]1O [Streptomycin] |  |  |  | 0 | 0 | 0 | 0 | 0 | 0 | 83 | 57 | 81 | 37 | 83 | 59 |
